Assay results from patent publication US12171813B2, “Methods of and compositions for reducing gene expression and/or activity” (Christiana Care Gene Editing Institute, Inc., priority 2021, dated 2024).

System: EGFR
Test: cDNA PCR analysis of exon skipping / full-size transcript in EGFR
Assay type: cell-based, Human
Conditions: gRNA on its own; PDMR lung adenocarcinoma cells
Description: After CRISPR reactions, total RNA was prepared, and cDNA synthesized for PCR amplification of the target region from EGFR. PCR-amplified DNA was then analyzed by electrophoresis through a 1% agarose gel for 75 minutes at 80v. DNA was stained with SYBR Safe. Lanes 1 and 13: NEB 2 Log Ladder; Lane 2: Scrambled gRNA; Lane 3: EGFR 21-22 SureKill gRNA 11 alone; Lane 4: EGFR 21-22 SureKill gRNA 13 alone; Lane 5: EGFR 21-22 SureKill gRNA 16 alone; Lane 6: EGFR 21-22 SureKill gRNA 17 alone; Lane 7: EGFR 21-22 SureKill gRNA 19 alone; Lane 8: EGFR 21-22 SureKill gRNA 22 alone; Lane 9: EGFR 21-22 SureKill gRNA 23 alone; Lane 10: EGFR 21-22 SureKill gRNA 27 alone; Lane 11: EGFR 21-22 SureKill gRNA 28 alone; Lane 12: EGFR 21-22 SureKill gRNA 29 alone. On the left side of the image are markers indicating DNA size in bp.
After CRISPR reactions, total RNA was prepared, and cDNA synthesized for semi-quantitative PCR amplification of the target region from EGFR. PCR amplification was performed for 25 cycles. PCR-amplified DNA was then analyzed by electrophoresis through a 1% agarose gel for 75 minutes at 80v. DNA was stained with SYBR Safe. […]
Transfections were carried out using the Lonza Nuclefector 4d. […] RNPs were complexed at 250:50 pmol for 30 minutes prior to transfection, during which time cells were harvested and counted. […]

L858R gRNA: guide RNA TCAAGATCACAGATTTTGGG, SEQ ID NO:8, targets EGFR L858R mutation (listed as DNA, chemistry not given here)
exon skipping (cDNA analysis): induced some level of exon skipping
